Measured values: paper PMC4198181, “Gold(I) Complexes of 9-Deazahypoxanthine as Selective Antitumor and Anti-Inflammatory Agents” (PLoS ONE, 2014)

Tests used:
Type in all cases: cell-based, human
[1] = tested on: A2780R ovarian carcinoma cells resistant to cisplatin; experiment: MTT in vitro cytotoxicity, A2780R; settings: 24 h treatment, MTT; read-out: IC50±S.E., A2780R
Method: (§1) In vitro cytotoxic activity was determined by the MTT assay in human breast adenocarcinoma (MCF7; ECACC no. 86012803), human osteosarcoma (HOS; ECACC no. 87070202), lung carcinoma (A549; ECACC no. 86012804), malignant melanoma (G361; ECACC no. 88030401), cervix epitheloid carcinoma (HeLa; ECACC no. 93021013), ovarian carcinoma (A2780; ECACC no. 93112519), cisplatin-resistant ovarian carcinoma (A2780R; […] ECACC no 105092802) cancer cell lines, purchased from European Collection of Cell Cultures (ECACC). […] The primary culture of human hepatocytes (HEP220, batch number HEP220819) was obtained from Biopredic International (France). The culture medium was Williams and HAM's F-12 (1∶1) supplemented with penicillin, streptomycin, ascorbic acid, linoleic acid, holo-transferin, ethanolamine, glucagon, insulin, dexamethasone, pyruvate, glucose, glutamine, amphotericin. The medium was enriched for plating with 2% foetal calf serum (v/v). The medium was exchanged for a serum-free medium the day after and the culture was stabilized for additional 24 h. Thereafter, the cells were ready for treatments. […] The MTT assay was performed spectrophotometrically at 540 nm (TECAN, Schoeller Instruments LLC). The cytotoxicity data were expressed as the percentage of viability, where 100% represented the treatments with vehicle (0.1% DMF or 0.1% DMSO). The cytotoxicity data from the cancer cell lines were acquired from three independent experiments (conducted in triplicate) using cells from different passages. The IC50 values were calculated from viability curves. The results are presented as arithmetic means±standard error of the mean (S.E.).

[2] = tested on: THP-1 monocytic leukaemia cells; experiment: WST-1 in vitro cytotoxicity, THP-1; settings: 24 h treatment, WST-1, 0.16–10.00 µM; read-out: IC50±S.E., THP-1
Method: Before the in vitro anti-inflammatory testing, in vitro cytotoxicity on human monocytic leukaemia cells (THP-1, ECACC no. 88081201) was determined using the WST-1 assay. The THP-1 cells (floating monocytes, 500 000 cells/mL) were incubated in 100 µL of the serum-free RPMI 1640 medium and seeded into 96-well plates in triplicate at 37°C. Measurements were taken 24 h after the treatment with the tested compounds dissolved in 0.1% DMSO in the concentration range of 0.16–10.00 µM. Viability was determined by the WST-1 test according to the manufacturer's manual. The amount of the formed formazan (which correlates to the number of metabolically active cells in the culture) was calculated as a percentage of the control cells, which were treated only with 0.1% DMSO and was set-up as 100%. The IC50 values of the tested compounds were calculated from the obtained data. The WST-1 assay was performed spectrophotometrically at 440 nm (FLUOstar Omega, BMG Labtech).
The cytotoxicity data were expressed as the percentage of viability, where 100% represented the treatments with vehicle (0.1% DMF or 0.1% DMSO). The cytotoxicity data from the cancer cell lines were acquired from three independent experiments (conducted in triplicate) using cells from different passages. The IC50 values were calculated from viability curves. The results are presented as arithmetic means±standard error of the mean (S.E.). The significance of the differences between the results was assessed by the ANOVA analysis with p<0.05 considered to be significant (QC Expert 3.2, Statistical software, TriloByte Ltd., Pardubice, Czech Republic).

[3] = tested on: HeLa cervix epitheloid carcinoma cells; experiment: MTT in vitro cytotoxicity, HeLa; settings: 24 h treatment, read-out: IC50±S.E., HeLa
Method: as §1

IL-1β mRNA = experiment: IL-1β gene expression by RT-qPCR in LPS-stimulated THP-1 macrophages; settings: 300 nM, 2 h after LPS, normalised to β-actin
Method: For the determination of biological activity, we used the human monocytic leukaemia cell line THP-1 (ECACC, Salisbury, UK). The cells were cultivated at 37°C in the RPMI 1640 medium supplemented with 2 mM L-glutamine, 10% FBS, 100 U/mL of penicillin and 100 µg/mL of streptomycin in a humidified atmosphere containing 5% CO2. Stabilized cells (3rd–15th passage) were split into microtitration plates to get a concentration of 500 000 cells/mL and the differentiation to macrophages was induced by phorbol myristate acetate (PMA) dissolved in dimethyl sulfoxide (DMSO) at the final concentration of 50 ng/ml, and the cells were incubated for 24 h. In comparison with monocytes, differentiated macrophages tend to adhere to the bottoms of the cultivation plates. For next 24 h the cells were incubated with a fresh complete RPMI medium, i.e. containing antibiotics and FBS, without PMA. The medium was then aspirated, and the cells were washed with PBS and cultivated for next 24 hours in serum-free RPMI 1640 medium. These prepared macrophages were used for the detection of inflammatory response.
In the order to evaluate the expression of TNF-α, IL-1β, and β-actin mRNA, total RNA was isolated directly from the LPS-stimulated THP-1 cells. THP-1 macrophages were pretreated with compounds 2, 5, and Auranofin at the concentration of 300 nM or the vehicle (0.1% DMSO) only. After 1 h of the incubation, the inflammatory response was induced by LPS [except for the control cells (CTRL)]. After 2 h of the incubation with LPS, the medium was aspirated and the total RNA was isolated directly from the cells in cultivation plates using a RealTime Ready Cell Lysis Kit (Roche), according to the manufacturer's instructions.
The gene expression was quantified by two-step reverse-transcription quantitative (real-time) PCR (RT-qPCR). The reverse transcription step was performed by Transcriptor Universal cDNA Master using cell lysate as a template. […] The results were normalized to the amount of ROX reference dye, and the change in gene expression was determined by the 2^−ΔΔCT method. […]

SMILES	IC50 [1] [µM]	IC50 [2] [nM]	IC50 [3] [µM]	effect on IL-1β mRNA transcription (IL-1β mRNA)
CC(C)Oc1ncnc2cc[n]([Au])c12.c1ccc(P(c2ccccc2)c2ccccc2)cc1 [complex 2, [Au(L2)(PPh3)]]	5.3 ± 0.4	800 ± 100	16 ± 0.2	significantly reduce the transcription
[Au][n]1ccc2ncnc(OCCc3ccccc3)c21.c1ccc(P(c2ccccc2)c2ccccc2)cc1 [complex 5]	5 ± 0.3	1400 ± 100	22.8 ± 0.5	significantly reduce the transcription
